Test results as given in patent publication US8993619B2, “Cyclic bridgehead ether DGAT1 inhibitors” (Novartis AG, priority 2012, dated 2015).

Key:
human (His)6DGAT1 = biological target: T1, human (His)6DGAT1 (Homo sapiens, UniProt O75907); assay: DGAT1 Inhibition Assay; type: biochemical; details: membrane preparation from Sf9 cells overexpressing human (His)6DGAT1; LC/MS/MS readout
T1 construct: made in house; host or cells: Sf9 insect cells (membrane preparation)
T1 sequence (O75907 1-488): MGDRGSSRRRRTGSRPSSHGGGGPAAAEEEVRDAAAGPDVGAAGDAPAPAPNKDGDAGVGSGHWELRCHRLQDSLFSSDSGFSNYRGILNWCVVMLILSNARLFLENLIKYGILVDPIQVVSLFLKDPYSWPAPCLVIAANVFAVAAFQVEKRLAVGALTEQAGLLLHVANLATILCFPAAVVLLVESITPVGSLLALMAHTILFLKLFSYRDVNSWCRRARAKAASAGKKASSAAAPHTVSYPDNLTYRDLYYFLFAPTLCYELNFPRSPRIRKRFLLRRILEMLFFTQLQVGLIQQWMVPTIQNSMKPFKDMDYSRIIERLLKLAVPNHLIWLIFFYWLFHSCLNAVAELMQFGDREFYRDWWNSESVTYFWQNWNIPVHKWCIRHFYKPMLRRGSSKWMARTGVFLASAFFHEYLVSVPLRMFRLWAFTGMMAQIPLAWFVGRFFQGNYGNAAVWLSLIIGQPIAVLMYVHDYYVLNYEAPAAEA
Experimental: The enzyme preparation used in this assay is a membrane preparation from Sf9 cells overexpressing human (His)6DGAT1. During all steps samples were chilled to 4° C. Sf9 cells expressing human (His)6DGAT1 were thawed at room temperature and re-suspended at a 10:1 ratio (mL buffer/g of cells) in 50 mM HEPES, 1× Complete Protease Inhibitor, pH 7.5. The re-suspended pellet was homogenized for 1 min using a Brinkman PT 10/35 homogenizer with a 20 mm generator. Cells were lysed using Avestin Emulsiflex (chilled to 4° C.) at 10000-15000 psi. Lysate was centrifuged at 100,000×g for 1 h at 4° C. Supernatant was removed and pellets were re-suspended in 50 mM HEPES, 1× Complete Protease Inhibitor, pH 7.5 at ⅙ the volume of supernatant. Re-suspended pellets were pooled and homogenized with 10 strokes of a Glas-Col motor driven teflon pestle on setting 70. The protein concentration of the membrane preparation was quantified using BCA protein assay with 1% SDS. The membrane preparation was aliquoted, frozen on dry ice, and stored at −80° C.
For 50 mL, 25 mL of 0.2 M HEPES stock buffer, 0.5 mL of 1 M MgCl2 ([…]), and 24.5 mL of milli-Q H2O are added to the 55 mL Wheaton Potter-Elvehjem homogenizer. Enzyme preparation (0.1 mL) is added to buffer and the mixture is homogenized with 5 strokes on ice using the Glas-Col variable speed homogenizer system on setting 70.
For 50 mL, 0.5 mL 10 mM diolein is added to 9.5 mL of EtOH in a 50 mL Falcon screw cap conical centrifuge tube. Five mL of 10 mM sodium acetate pH 4.5 is added followed by 0.5 mL of 10 mM oleoyl-CoA. Finally, the remaining 4.5 mL of 10 mM sodium acetate pH 4.5 is added followed by 30 mL of milli-Q H20. The solution should be gently agitated by hand to induce mixing. The final concentrations of EtOH and sodium acetate are 20% and 2 mM, respectively.
Dry compounds are dissolved in the appropriate volume of DMSO to a final concentration of 10 mM. […] All dilutions are performed in DMSO in a Greiner 384-well microplate. • 1. 2 μL of compound in DMSO is added to the appropriate wells. […] 25 μL of enzyme mix is added to all wells and plate(s) are incubated for 10 min at RT. • 3. […] Plate(s) are vortexed using Troemner multi-tube vortexer (setting 7 for 10 sec). • 4. 25 μL of substrate mix is added to all wells. Plate(s) are vortexed using Troemner multi-tube vortexer (setting 7 for 10 sec). Plate(s) are incubated for 30 min at RT. • 5. 10 μL of 20% acetic acid quench is added to all wells. Plate(s) are vortexed using Troemner multi-tube vortexer (setting 7 for 10 sec). • 6. 50 μL of 1-butanol w/ glyceryl tripalmitoleate internal standard is added to all wells. • 7. Plate(s) are sealed with super pierce strong plate sealer using the thermo-sealer. • 8. Plate(s) are vortexed using Troemner multi-tube vortexer (setting 10 for 5 min). • 9. Plate(s) are centrifuged at 162×g (1000 rpm for GH-3.8 rotor) for 5 min using Beckman GS-6R tabletop centrifuge.
Where indicated, tripalmitolein was used as an internal standard to control for instrument variation.
Column: Thermo Betabasic 4, 2.1×20 mm
Solvent: 10 mM Ammonium Formate, 0.1% Formic Acid, 2% water, 98% Methanol
Isocratic run 0.5 ml per minute
Data is converted to % inhibition prior to curve fitting using the following equation: […]

DGAT1 in C2C12 cells = biological target: T2, DGAT1 in C2C12 cells (Mus musculus, UniProt Q9Z2A7); assay: Cellular assay to measure activity of DGAT1 inhibitors in mammalian cells (C2C12); type: cell-based; details: C2C12 mouse skeletal muscle cells, 250 μM oleate, 2 h, LC/MS readout
T2 construct: endogenous in cells; host or cells: C2C12 mouse skeletal muscle cells
T2 sequence (Q9Z2A7 1-498): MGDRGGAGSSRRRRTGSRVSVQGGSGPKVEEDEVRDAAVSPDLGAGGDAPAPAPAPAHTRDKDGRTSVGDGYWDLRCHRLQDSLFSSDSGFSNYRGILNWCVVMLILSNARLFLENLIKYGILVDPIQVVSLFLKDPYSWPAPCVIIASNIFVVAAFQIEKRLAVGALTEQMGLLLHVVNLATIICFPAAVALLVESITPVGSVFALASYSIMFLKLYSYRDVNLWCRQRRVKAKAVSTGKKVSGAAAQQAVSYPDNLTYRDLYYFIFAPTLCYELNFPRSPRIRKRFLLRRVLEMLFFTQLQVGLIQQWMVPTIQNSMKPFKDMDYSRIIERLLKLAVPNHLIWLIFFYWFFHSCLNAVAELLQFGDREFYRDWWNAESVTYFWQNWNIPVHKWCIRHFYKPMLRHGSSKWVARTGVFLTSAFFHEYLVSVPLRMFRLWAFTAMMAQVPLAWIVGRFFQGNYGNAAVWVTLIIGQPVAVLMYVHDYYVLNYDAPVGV
Experimental: C2C12 cells are an immortal mouse skeletal muscle cell line showing an 8-fold enrichment form DGAT1 versus DGAT2. C2C12 cells were routinely cultured in 150 cm2 flasks with DMEM (25 mM glucose) containing 10% FBS, 4 m M L-glutamine, 100 U/ml penicillin and 100 μg/ml streptomycin (30 ml per flask), at 37° C., 5% CO2 and 95% humidity. All studies were performed on cells at passage 10 or less.
C2C12 cells were seeded in 96-well plates in DMEM containing […] glucose and 10% FBS, 18 h (at 37° C.) prior to assay (all wells of the plate are used). […] Compounds were added at 1:3 dilution, 11 points and DMSO control, the starting concentration was usually 40 μM. Each point was dosed in quadruplicate allowing 2 compounds to be dosed per plate. The medium was removed at the end of the incubation and 200 μl/well of 1-butanol added. The 1-butanol contained an internal standard, tripalmitolein (2 μM). The plates were sealed with an adhesive plate sealer and left at room temperature for at least 30 min, then spun down at 209×g for 5 min.
Butanolic extracts were transferred to 384-well LC-MS plates (80 μl/well) and the plate heatsealed with a foil plate sealer. The 384-well plates containing sample were spun down at 209×g for 5 min prior to loading on the LC-MS.
Where indicated, tripalmitolein was used as an internal standard to control for instrument variation. HPLC conditions as above.

SMILES	IC50 (human (His)6DGAT1)	IC50 (DGAT1 in C2C12 cells)	IC50 (DGAT1 in C2C12 cells; heading: DGAT1-C2C12 IC50)
CC(C)(C)c1nnc(Nc2ccc(-c3ccc(C45CCC(CC(=O)O)(CC4)OC5)cc3)nc2)o1 [Example 1, 2-(4-(4-(5-(5-tert-butyl-1,3,4-oxadiazol-2-ylamino)pyridin-2-yl)phenyl)-2-oxabicyclo[2.2.2]octan-1-yl)acetic acid]	345 nM	288 nM	–
O=C(O)CC12CCC(c3ccc(-c4cnc(Nc5nnc(C6CCC6)s5)nc4)cc3)(CC1)CO2 [Example 4, 2-(4-(4-(2-(5-cyclobutyl-1,3,4-thiadiazol-2-ylamino)pyrimidin-5-yl)phenyl)-2-oxabicyclo[2.2.2]octan-1-yl)acetic acid]	14000 nM	2500 nM	–
O=C(O)CC12CCC(c3ccc(-c4ccc(Nc5nnc(C6CCC6)s5)nc4)cc3)(CC1)CO2 [Example 5, 2-(4-(4-(6-((5-cyclobutyl-1,3,4-thiadiazol-2-yl)amino)pyridin-3-yl)phenyl)-2-oxabicyclo[2.2.2]octan-1-yl)acetic acid]	375 nM	1240 nM	–
CC(C)(C)c1nnc(Nc2ccc(-c3ccc(C45CCC(CC(=O)O)(CC4)OC5)cc3)cc2)o1 [Example 8, 2-(4-(4′-(5-tert-butyl-1,3,4-oxadiazol-2-ylamino)biphenyl-4-yl)-2-oxabicyclo[2.2.2]octan-1-yl)acetic acid]	99 nM	9 nM	–
O=C(O)CC12CCC(c3ccc(-c4ccc(Nc5nnc(C6CC6)o5)cc4)cc3)(CC1)CO2 [Example 9, 2-(4-(4′-((5-cyclopropyl-1,3,4-oxadiazol-2-yl)amino)-[1,1′-biphenyl]-4-yl)-2-oxabicyclo[2.2.2]octan-1-yl)acetic acid]	230000 nM	–	528 nM
Cc1nc(C(=O)Nc2ccc(-c3ccc(C45CCC(CC(=O)O)(CC4)OC5)cc3)cc2)c(C(F)(F)F)o1 [Example 10, 2-(4-(4′-(2-methyl-5-(trifluoromethyl)oxazole-4-carboxamido)-[1,1′-biphenyl]-4-yl)-2-oxabicyclo[2.2.2]octan-1-yl)acetic acid]	360 nM	56 nM	–
Cc1nc(C(=O)Nc2ccc(-c3ccc(C45CCC(CC(=O)O)(CC4)OC5)cc3)nc2)c(C(F)(F)F)o1 [Example 12, 2-(4-(4-(5-(2-methyl-5-(trifluoromethyl)oxazole-4-carboxamido)pyridin-2-yl)phenyl)-2-oxabicyclo[2.2.2]octan-1-yl)acetic acid]	878 nM	–	–
CC(C)(C)c1cnc(Nc2ccc(-c3ccc(C45CCC(CC(=O)O)(CC4)OC5)cc3)nc2)o1 [Example 14, 2-(4-(4-(5-((5-(tert-butyl)oxazol-2-yl)amino)pyridin-2-yl)phenyl)-2-oxabicyclo[2.2.2]octan-1-yl)acetic acid]	130 nM	108 nM	–
CCc1nc(C)c(C(=O)Nc2ccc(-c3ccc(C45CCC(CC(=O)O)(CC4)CO5)cc3)cc2)o1 [Example 18, 2-(1-(4′-(2-ethyl-4-methyloxazole-5-carboxamido)-[1,1′-biphenyl]-4-yl)-2-oxabicyclo[2.2.2]octan-4-yl)acetic acid]	2900 nM	160 nM	–
O=C(O)CC12CCC(c3ccc(-c4ccc(Nc5nnc(C6CCC6)o5)cc4)cc3)(CC1)OC2 [Example 19, {1-[4′-(5-cyclobutyl-[1,3,4]oxadiazol-2-ylamino)-biphenyl-4-yl]-2-oxa-bicyclo[2.2.2]oct-4-yl}-acetic acid]	260 nM	6 nM	–

Stronger by IC50 (human (His)6DGAT1), values ahead:

IC50 (human (His)6DGAT1)	IC50 (DGAT1 in C2C12 cells)	IC50 (DGAT1 in C2C12 cells; heading: DGAT1-C2C12 IC50)	SMILES
53.5 nM	15 nM	–	O=C(O)CC12CCC(c3ccc(-c4ccc(Nc5nnc(C6CCC6)s5)cn4)cc3)(CC1)CO2 [Example 3, 2-(4-(4-(5-((5-cyclobutyl-1,3,4-thiadiazol-2-yl)amino)pyridin-2-yl)phenyl)-2-oxabicyclo[2.2.2]octan-1-yl)acetic acid]
12.5 nM	2 nM	–	O=C(O)CC12CCC(c3ccc(-c4ccc(Nc5nnc(C6CCC6)s5)cc4)cc3)(CC1)CO2 [Example 6, 2-(4-(4′-(5-cyclobutyl-1,3,4-thiadiazol-2-ylamino)biphenyl-4-yl)-2-oxabicyclo[2.2.2]octan-1-yl)acetic acid]
44 nM	7 nM	–	CC(C)(C)c1cnc(Nc2ccc(-c3ccc(C45CCC(CC(=O)O)(CC4)OC5)cc3)cc2)o1 [Example 15, 2-(4-(4′-((5-(tert-butyl)oxazol-2-yl)amino)-[1,1′-biphenyl]-4-yl)-2-oxabicyclo[2.2.2]octan-1-yl)acetic acid]
60 nM	38 nM	–	CC(C)Cc1nnc(Nc2ccc(-c3ccc(C45CCC(CC(=O)O)(CC4)OC5)cc3)cc2)o1 [Example 16, 2-(4-(4′-((5-isobutyl-1,3,4-oxadiazol-2-yl)amino)-[1,1′-biphenyl]-4-yl)-2-oxabicyclo[2.2.2]octan-1-yl)acetic acid]
53 nM	31 nM	–	CC(C)(C)Cc1nnc(Nc2ccc(-c3ccc(C45CCC(CC(=O)O)(CC4)OC5)cc3)cc2)o1 [Example 17, 2-(4-(4′-((5-neopentyl-1,3,4-oxadiazol-2-yl)amino)-[1,1′-biphenyl]-4-yl)-2-oxabicyclo[2.2.2]octan-1-yl)acetic acid]
